ChEMBL document CHEMBL1201862, “PubChem BioAssay data set” (2004)
Counter-ions that a name gives are not always drawn.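 Method: 48-hour compound exposure of cells in 96-well plates, five concentrations, linear interpolation of endpoints. Abbreviation: GI50, concentration required for 50% inhibition of growth.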 Calls of active or inactive are those of the source. Rule as the data show it: active = GI50 up to about 1.1 µM and inactive = higher.

Legend:
Assay in all cases: NCI-60 cell line screen, 48 h
Hs-578T = tested on: Hs-578T
UO-31 = tested on: UO-31
OVCAR-5 = tested on: OVCAR-5
TK-10 = tested on: TK-10
NCI-H226 = tested on: NCI-H226
HCC 2998 = tested on: HCC 2998
PC-3 = tested on: PC-3
RPMI-8226 = tested on: RPMI-8226
NCI-H460 = tested on: NCI-H460
SF-295 = tested on: SF-295
HCT-15 = tested on: HCT-15
MCF7 = tested on: MCF7
786-0 = tested on: 786-0
SK-MEL-28 = tested on: SK-MEL-28
SK-MEL-5 = tested on: SK-MEL-5
OVCAR-3 = tested on: OVCAR-3
RXF 393 = tested on: RXF 393
EKVX = tested on: EKVX
SNB-75 = tested on: SNB-75
NCI/ADR-RES = tested on: NCI/ADR-RES

SMILES	GI50 (Hs-578T)	GI50 (UO-31)	GI50 (OVCAR-5)	GI50 (TK-10)	GI50 (NCI-H226)	GI50 (HCC 2998)	GI50 (PC-3)	GI50 (RPMI-8226)	GI50 (NCI-H460)	GI50 (SF-295)	GI50 (HCT-15)	GI50 (MCF7)	GI50 (786-0)	GI50 (SK-MEL-28)	GI50 (SK-MEL-5)	GI50 (OVCAR-3)	GI50 (RXF 393)	GI50 (EKVX)	GI50 (SNB-75)	GI50 (NCI/ADR-RES)
CCOC(=O)Nc1sc2c(c1C#N)CCCC2	78.7 µM (inactive)	27.7 µM (inactive)	> 100 µM (inactive)	> 100 µM (inactive)	89.5 µM (inactive)	> 100 µM (inactive)	66.4 µM (inactive)	33 µM (inactive)	> 100 µM (inactive)	> 100 µM (inactive)	79.4 µM	> 100 µM (inactive)	> 100 µM (inactive)	> 100 µM (inactive)	71.6 µM (inactive)	> 100 µM (inactive)	> 100 µM (inactive)	25.9 µM (inactive)	–	–
[O-][S+](Cc1ccccc1)c1ccccc1Cn1cccc1 (stereo not given)	> 100 µM (inactive)	> 100 µM (inactive)	> 100 µM (inactive)	> 100 µM (inactive)	–	> 100 µM (inactive)	> 100 µM (inactive)	> 100 µM (inactive)	> 100 µM (inactive)	60.4 µM (inactive)	> 100 µM	> 100 µM (inactive)	> 100 µM (inactive)	> 100 µM (inactive)	> 100 µM (inactive)	> 100 µM (inactive)	42.8 µM (inactive)	> 100 µM (inactive)	74.3 µM (inactive)	> 100 µM (inactive)
Nc1ncnc2c1ccn2CC#CCO	> 100 µM (inactive)	> 100 µM (inactive)	> 100 µM (inactive)	> 100 µM (inactive)	–	> 100 µM (inactive)	> 100 µM (inactive)	> 100 µM (inactive)	> 100 µM (inactive)	> 100 µM (inactive)	> 100 µM	> 100 µM (inactive)	> 100 µM (inactive)	> 100 µM (inactive)	> 100 µM (inactive)	> 100 µM (inactive)	97.3 µM (inactive)	> 100 µM (inactive)	> 100 µM (inactive)	> 100 µM (inactive)
O=C(N/N=C1\CCc2ccccc2C1)N/N=C1\CCc2ccccc2C1	–	> 10 µM (inactive)	> 10 µM (inactive)	> 10 µM (inactive)	> 10 µM (inactive)	> 10 µM (inactive)	> 10 µM (inactive)	> 10 µM (inactive)	> 10 µM (inactive)	> 10 µM (inactive)	> 10 µM	> 10 µM (inactive)	> 10 µM (inactive)	–	–	> 10 µM (inactive)	> 10 µM (inactive)	> 10 µM (inactive)	–	> 10 µM (inactive)
COc1ccc2c(c1)CC1(O)COc3cc(OC)ccc3C1O2 (stereo not given)	–	> 100 µM (inactive)	> 100 µM (inactive)	> 100 µM (inactive)	> 100 µM (inactive)	77.8 µM (inactive)	> 100 µM (inactive)	59 µM (inactive)	–	> 100 µM (inactive)	96.2 µM	> 100 µM (inactive)	> 100 µM (inactive)	–	38.8 µM (inactive)	> 100 µM (inactive)	–	> 100 µM (inactive)	–	68.9 µM (inactive)
O=C1c2cc3c(cc2CC12Cc1cc4c(cc1C2=O)CCC4)CCCC3 (stereo not given)	> 100 µM (inactive)	> 100 µM (inactive)	> 100 µM (inactive)	> 100 µM (inactive)	–	> 100 µM (inactive)	> 100 µM (inactive)	> 100 µM (inactive)	> 100 µM (inactive)	> 100 µM (inactive)	> 100 µM	> 100 µM (inactive)	76 µM (inactive)	> 100 µM (inactive)	> 100 µM (inactive)	> 100 µM (inactive)	> 100 µM (inactive)	95.1 µM (inactive)	> 100 µM (inactive)	> 100 µM (inactive)
O=C(CC(C(=O)c1cccs1)c1ccsc1)c1ccccc1 (stereo not given)	> 100 µM (inactive)	37.8 µM (inactive)	> 100 µM (inactive)	> 100 µM (inactive)	> 100 µM (inactive)	> 100 µM (inactive)	–	48.8 µM (inactive)	51.4 µM (inactive)	> 100 µM (inactive)	48.1 µM	30.7 µM (inactive)	> 100 µM (inactive)	> 100 µM (inactive)	76.9 µM (inactive)	> 100 µM (inactive)	61 µM (inactive)	> 100 µM (inactive)	> 100 µM (inactive)	25.1 µM (inactive)
CN(C(=S)Cc1ccc(Cl)c(Cl)c1)C1CCCC[C@@H]1N1CCCC1 (stereo not given in full)	–	19.6 µM (inactive)	59.8 µM (inactive)	27.9 µM (inactive)	46.6 µM (inactive)	–	31.4 µM (inactive)	31.8 µM (inactive)	–	17.1 µM (inactive)	58.1 µM	–	21.9 µM (inactive)	16.7 µM (inactive)	18.5 µM (inactive)	26.1 µM (inactive)	–	> 100 µM (inactive)	–	85.9 µM (inactive)
Cc1ccc(/N=c2/oc3c(ccc4ccccc43)nc2Nc2ccc(C)cc2)cc1	> 100 µM (inactive)	> 100 µM (inactive)	> 100 µM (inactive)	> 100 µM (inactive)	> 100 µM (inactive)	> 100 µM (inactive)	> 100 µM (inactive)	> 100 µM (inactive)	> 100 µM (inactive)	> 100 µM (inactive)	> 100 µM	–	> 100 µM (inactive)	> 100 µM (inactive)	> 100 µM (inactive)	–	> 100 µM (inactive)	> 100 µM (inactive)	> 100 µM (inactive)	> 100 µM (inactive)
NCCCNOCCCN	–	> 100 µM (inactive)	> 100 µM (inactive)	> 100 µM (inactive)	–	> 100 µM (inactive)	> 100 µM (inactive)	> 100 µM (inactive)	> 100 µM (inactive)	> 100 µM (inactive)	> 100 µM	> 100 µM (inactive)	> 100 µM (inactive)	> 100 µM (inactive)	> 100 µM (inactive)	> 100 µM (inactive)	> 100 µM (inactive)	–	–	> 100 µM (inactive)
COc1ccc(CCNC(=O)c2ccccc2C2c3ccc(OCc4ccccc4)cc3Oc3cc(OCc4ccccc4)ccc32)cc1OC	–	> 100 µM (inactive)	> 100 µM (inactive)	> 100 µM (inactive)	> 100 µM (inactive)	> 100 µM (inactive)	> 100 µM (inactive)	> 100 µM (inactive)	–	> 100 µM (inactive)	> 100 µM	> 100 µM (inactive)	> 100 µM (inactive)	> 100 µM (inactive)	> 100 µM (inactive)	> 100 µM (inactive)	> 100 µM (inactive)	> 100 µM (inactive)	–	> 100 µM (inactive)
Cc1c(NC(=O)CCCl)c(=O)oc2c(C)c3occc(=O)c3cc12	35.5 µM (inactive)	36.1 µM (inactive)	> 100 µM (inactive)	49.2 µM (inactive)	–	> 100 µM (inactive)	–	81.7 µM (inactive)	51.2 µM (inactive)	33 µM (inactive)	62.4 µM	67.5 µM (inactive)	> 100 µM (inactive)	53 µM (inactive)	36.8 µM (inactive)	–	33.5 µM (inactive)	> 100 µM (inactive)	42.2 µM (inactive)	> 100 µM (inactive)
COc1ccc2c(c1)O[C@@H]1[C@@H](OC3OC(CO)C(O)C(O)C3O)Oc3cc(OC)c(OC)cc3[C@]1(O)C2=O (stereo not given in full)	> 100 µM (inactive)	> 100 µM (inactive)	> 100 µM (inactive)	> 100 µM (inactive)	34 µM (inactive)	> 100 µM (inactive)	> 100 µM (inactive)	> 100 µM (inactive)	> 100 µM (inactive)	> 100 µM (inactive)	> 100 µM	–	> 100 µM (inactive)	25.8 µM (inactive)	> 100 µM (inactive)	> 100 µM (inactive)	> 100 µM (inactive)	> 100 µM (inactive)	> 100 µM (inactive)	> 100 µM (inactive)
CC(=O)Oc1ccc(OC(Oc2ccccc2)c2ccccc2)cc1 (stereo not given)	–	26.8 µM (inactive)	27.7 µM (inactive)	67.3 µM (inactive)	27 µM (inactive)	14.7 µM (inactive)	30 µM (inactive)	–	21.6 µM (inactive)	29.6 µM (inactive)	33.9 µM	35.4 µM (inactive)	23.8 µM (inactive)	26.2 µM (inactive)	–	21.2 µM (inactive)	26.1 µM (inactive)	41.6 µM (inactive)	10.4 µM (inactive)	50.9 µM (inactive)
O=c1c(C(c2ccc(-c3ccccc3)cc2)c2c(O)oc3ccccc3c2=O)c(O)oc2ccccc12	24.4 µM (inactive)	17.7 µM (inactive)	–	51.9 µM (inactive)	23.2 µM (inactive)	15.6 µM (inactive)	24.2 µM (inactive)	25.9 µM (inactive)	18.9 µM (inactive)	–	19.1 µM	–	26.9 µM (inactive)	16.3 µM (inactive)	28.7 µM (inactive)	24.3 µM (inactive)	–	46.6 µM (inactive)	24.5 µM (inactive)	21.6 µM (inactive)
CNC(C)Cc1ccccc1OC (stereo not given) [METHOXYPHENAMINE HYDROCHLORIDE]	–	> 100 µM (inactive)	> 100 µM (inactive)	> 100 µM (inactive)	> 100 µM (inactive)	> 100 µM (inactive)	–	> 100 µM (inactive)	> 100 µM (inactive)	> 100 µM (inactive)	> 100 µM	–	> 100 µM (inactive)	> 100 µM (inactive)	> 100 µM (inactive)	> 100 µM (inactive)	> 100 µM (inactive)	> 100 µM (inactive)	> 100 µM (inactive)	–
